This test relates to rough dry skin. The experiment in a line: Skin moisturization evaluation: appearance of treated skin under the dissection microscope. It is filed as in vivo. The note with it: 5% solution applied to skin; scale of 1 to 5, 1 being poor and 5 being best. From the text:
The effect of moisturization can be measured by the appearance of the skin when treated. Untreated skin that is in need of moisturization is rough, scaly and dry looking under the dissection microscope. The application of the moisturization solution to the skin and its effect upon minimizing roughness, scaling and dry appearance is a good measure of moisturization. We performed such an evaluation and rated the performance of a scale of 1 to 5. 1 being poor and 5 being best.

Turning to `C[N+](C)(C)CCO` [Choline], the “Rating (moisturization: minimizing roughness, scaling and dry appearance)” value worked out at 4.
With `OCC(O)CO` [Glycerin] the figure was 2.

(Values after patent publication US7449494B1, “Polymeric skin moisturizing compounds” (SurfaTech Corporation, priority 2004, dated 2008).)
